Assay results from PubChem BioAssay AID248 (DTP/NCI, 2004).
Several values for one entry are separate records, joined by “and”; a condition that tells them apart may be missing. Equal values may be shown once. Inconclusive results and toxic doses are left out. No stated cut-off is given here; in the data, active means T/C of 150% or more; inactive means T/C below 125%.

System: L1210 leukemia ip in BDF1 mice, survival T/C
Experiment: NCI In Vivo Anticancer Drug Screen. Data for tumor model L1210 Leukemia (intraperitoneal) in B6D2F1 (BDF1) mice
Settings: endpoint: mean survival time, higher = longer survival
How it was run: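 Transplantable tumor model; survival measured in treated vs vehicle control mice. Value = treated/control.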

[1] = dose: 100.0 mg/kg/injection, schedule: Q04DX003 (ip), vehicle: saline with Tween-80
[2] = dose: 200.0 mg/kg/injection, schedule: Q04DX003 (ip), vehicle: saline with Tween-80
[3] = dose: 400.0 mg/kg/injection, schedule: Q04DX003 (ip), vehicle: saline with Tween-80
[4] = dose: 50.0 mg/kg/injection, schedule: Q01DX001 (ip), vehicle: saline
[5] = dose: 100.0 mg/kg/injection, schedule: Q01DX001 (ip), vehicle: saline
[6] = dose: 100.0 mg/kg/injection, schedule: Q01DX009 (ip), vehicle: Klucel (hydroxypropylcellulose) (HPC)
[7] = dose: 200.0 mg/kg/injection, schedule: Q01DX001 (ip), vehicle: saline
[8] = dose: 200.0 mg/kg/injection, schedule: Q01DX009 (ip), vehicle: Klucel (hydroxypropylcellulose) (HPC)
[9] = dose: 400.0 mg/kg/injection, schedule: Q01DX009 (ip), vehicle: Klucel (hydroxypropylcellulose) (HPC)
[10] = dose: 400.0 mg/kg/injection, schedule: Q01DX001 (ip), vehicle: saline
[11] = dose: 100.0 mg/kg/injection, schedule: Q04DX003 (ip), vehicle: Klucel (hydroxypropylcellulose) (HPC)
[12] = dose: 200.0 mg/kg/injection, schedule: Q04DX003 (ip), vehicle: Klucel (hydroxypropylcellulose) (HPC)
[13] = dose: 25.0 mg/kg/injection, schedule: Q01DX009 (ip), vehicle: saline
[14] = dose: 50.0 mg/kg/injection, schedule: Q01DX009 (ip), vehicle: saline
[15] = dose: 100.0 mg/kg/injection, schedule: Q01DX009 (ip), vehicle: saline

Measured: T/C

S=c1[nH]c(=S)c2[nH]cnc2[nH]1
inactive: dose: 50.0 mg/kg/injection, schedule: Q01DX001 (ip), vehicle: other 113 % of control | dose: 50.0 mg/kg/injection, schedule: Q01DX009 (ip), vehicle: other 94 % of control | dose: 100.0 mg/kg/injection, schedule: Q01DX001 (ip), vehicle: other 101 % of control | dose: 100.0 mg/kg/injection, schedule: Q01DX009 (ip), vehicle: other 96 % of control | dose: 200.0 mg/kg/injection, schedule: Q01DX001 (ip), vehicle: other 103 % of control | dose: 200.0 mg/kg/injection, schedule: Q01DX009 (ip), vehicle: other 97 % of control | dose: 400.0 mg/kg/injection, schedule: Q01DX001 (ip), vehicle: other 107 % of control | dose: 400.0 mg/kg/injection, schedule: Q01DX009 (ip), vehicle: other 102 % of control | dose: 600.0 mg/kg/injection, schedule: Q01DX001 (ip), vehicle: other 100 % of control | dose: 1200.0 mg/kg/injection, schedule: Q01DX001 (ip), vehicle: other 117 % of control

Cc1cc2oc(C)[n+](Cc3ccccc3)c2cc1C
inactive: dose: 100.0 mg/kg/injection, schedule: Q01DX009 (ip), vehicle: saline with Tween-80 105 % of control and 86 % of control | [1] 97 % of control | dose: 200.0 mg/kg/injection, schedule: Q01DX009 (ip), vehicle: saline with Tween-80 96 % of control and 110 % of control | [2] 95 % of control | [3] 95 % of control

O=c1[nH]c2ncccc2c(=O)n1O
inactive: [4] 96 % of control | [5] 100 % of control | [6] 96 % of control | [7] 96 % of control | [8] 98 % of control | [9] 94 % of control

CCN(CCCl)CCCNc1c2ccc(Cl)cc2nc2ccc(OC)nc12
inactive: dose: 1.5 mg/kg/injection, schedule: Q01DX009 (ip), vehicle: saline 119 % of control | dose: 6.0 mg/kg/injection, schedule: Q01DX009 (ip), vehicle: saline 91 % of control

O=[N+]([O-])c1ccc(NCc2ccccc2O)cc1
inactive: dose: 75.0 mg/kg/injection, schedule: Q04DX003 (ip), vehicle: other 110 % of control | dose: 100.0 mg/kg/injection, schedule: Q01DX001 (ip), vehicle: Klucel (hydroxypropylcellulose) (HPC) 101 % of control | dose: 150.0 mg/kg/injection, schedule: Q04DX003 (ip), vehicle: other 97 % of control | dose: 200.0 mg/kg/injection, schedule: Q01DX001 (ip), vehicle: Klucel (hydroxypropylcellulose) (HPC) 106 % of control | dose: 300.0 mg/kg/injection, schedule: Q04DX003 (ip), vehicle: other 103 % of control | dose: 400.0 mg/kg/injection, schedule: Q01DX001 (ip), vehicle: Klucel (hydroxypropylcellulose) (HPC) 101 % of control

Nc1ccc(I)cc1
inactive: [1] 104 % of control | [2] 109 % of control

CCC1N2CCc3cc(OC)c(OC)cc3C2CCC1(O)Cc1ccccn1 (stereo unspecified)
inactive: dose: 100.0 mg/kg/injection, schedule: Q04DX003 (ip), vehicle: carboxymethylcellulose (CMC) 101 % of control | dose: 200.0 mg/kg/injection, schedule: Q04DX003 (ip), vehicle: carboxymethylcellulose (CMC) 101 % of control

Brc1ccc(N=N/C(=N/Nc2ccccc2)c2ccc(/C=N/Nc3ccccc3)cc2)cc1
inactive: [4] 95 % of control | [5] 101 % of control | [7] 95 % of control | [10] 91 % of control

Cc1cc(O)cc(=O)o1
inactive: [6] 97 % of control and 89 % of control | [11] 101 % of control and 86 % of control | [8] 95 % of control and 100 % of control | [12] 101 % of control and 103 % of control | [9] 94 % of control and 100 % of control | dose: 400.0 mg/kg/injection, schedule: Q04DX003 (ip), vehicle: Klucel (hydroxypropylcellulose) (HPC) 92 % of control and 102 % of control

Clc1cnc[nH]1
inactive: [13] 105 % of control | [14] 108 % of control | [5] 102 % of control | [15] 105 % of control | [7] 110 % of control | [10] 102 % of control

CCCCCCCCCCCCNC(=O)C[n+]1cccc(C(=O)N(C)C)c1
inactive: dose: 5.0 mg/kg/injection, schedule: Q04DX003 (ip), vehicle: saline 93 % of control | dose: 10.0 mg/kg/injection, schedule: Q04DX003 (ip), vehicle: saline 96 % of control | dose: 20.0 mg/kg/injection, schedule: Q04DX003 (ip), vehicle: saline 93 % of control

O=C(N/N=C\c1ccc(Cl)c(Cl)c1)N/N=C/c1ccc(Cl)c(Cl)c1
inactive: dose: 50.0 mg/kg/injection, schedule: Q04DX003 (ip), vehicle: Klucel (hydroxypropylcellulose) (HPC) 92 % of control | [11] 87 % of control | [12] 92 % of control

CNC(=O)Oc1cccc(NC(=O)N(C(C)C)C(C)C)c1
inactive: [1] 91 % of control | [2] 89 % of control | [3] 88 % of control

COC(OC)C1=CC(=O)NC(NC(=O)C(Cl)Cl)N1 (stereo unspecified)
inactive: [4] 92 % of control | [5] 98 % of control | [7] 95 % of control

CCSC1C(OC(C)=O)C(C(COC(C)=O)OC(C)=O)OC1n1cc(C)c(=O)[nH]c1=O (stereo unspecified)
inactive: dose: 100.0 mg/kg/injection, schedule: Q01DX005 (ip), vehicle: saline 98 % of control | dose: 200.0 mg/kg/injection, schedule: Q01DX005 (ip), vehicle: saline 100 % of control

C[N+](C)(C)C1(Cc2ccccc2)c2ccccc2-c2ccccc21
inactive: [13] 93 % of control | dose: 25.0 mg/kg/injection, schedule: Q04DX003 (ip), vehicle: saline 96 % of control | [14] 114 % of control | dose: 50.0 mg/kg/injection, schedule: Q04DX003 (ip), vehicle: saline 99 % of control | [1] 97 % of control | dose: 100.0 mg/kg/injection, schedule: Q04DX003 (ip), vehicle: saline 86 % of control

CCN(CC)CCCC(C)Nc1c(C)cnc2cc(Cl)c(C)cc12 (stereo unspecified)
inactive: [4] 112 % of control | [5] 95 % of control | [7] 101 % of control

CC(=O)OC1CC2(CO2)C2CC3OC3(C)C2C2OC(=O)C(C)C12 (stereo unspecified)
inactive: dose: 12.5 mg/kg/injection, schedule: Q04DX002 (ip), vehicle: saline 95 % of control | dose: 25.0 mg/kg/injection, schedule: Q04DX002 (ip), vehicle: saline 92 % of control | dose: 50.0 mg/kg/injection, schedule: Q04DX002 (ip), vehicle: saline 110 % of control | dose: 75.0 mg/kg/injection, schedule: Q04DX002 (ip), vehicle: saline 97 % of control | dose: 100.0 mg/kg/injection, schedule: Q04DX002 (ip), vehicle: saline 95 % of control | dose: 115.0 mg/kg/injection, schedule: Q04DX002 (ip), vehicle: saline 104 % of control | dose: 170.0 mg/kg/injection, schedule: Q04DX002 (ip), vehicle: saline 104 % of control | dose: 200.0 mg/kg/injection, schedule: Q04DX002 (ip), vehicle: saline 110 % of control | dose: 400.0 mg/kg/injection, schedule: Q04DX002 (ip), vehicle: saline 95 % of control

CC1CCC2(C)CCC3(C)C(=CCC4C5(C)CCC(OC(=O)c6ccccc6)C(C)(C)C5CCC43C)C2C1C (stereo unspecified)
inactive: dose: 100.0 mg/kg/injection, schedule: Q01DX001 (ip), vehicle: saline with Tween-80 96 % of control | dose: 200.0 mg/kg/injection, schedule: Q01DX001 (ip), vehicle: saline with Tween-80 102 % of control

CC(=O)CC(O)(C(F)(F)F)C(F)(F)F
inactive: [15] 105 % of control | dose: 200.0 mg/kg/injection, schedule: Q01DX009 (ip), vehicle: saline 101 % of control | dose: 400.0 mg/kg/injection, schedule: Q01DX009 (ip), vehicle: saline 93 % of control
